Data as given in patent US20230210735A1, “PREVENTION, REDUCTION, OR AMELIORATION OF OLD PERSON SMELL” (Firmenich SA, priority 2020, published 2023).

What was measured:
[1] = Aldehyde and ketone reaction products by HPLC with DNPH derivatization in a soap formulation; conditions: treated vs untreated soap, peak area
Protocol: The extent of rancidity in the soap formulation tested was determined by measuring the content of aldehyde and ketone reaction products of the soap oils present. DNPH derivatives of aldehydes/ketone products in soap and treated soap were synthesized as follows:
0.1000 g of a soap formulation, either treated or untreated with DiMeC10A-PhPA were separately measured and diluted to 12 mL by the addition of propan-2-ol. 1 mL of this prepared diluted mixture was added to 1 mL of diluted DNPH solution which was prepared separately by mixing DNPH (3 g/L) and 3% HCL and diluted into 12 mL by the addition of propan-2-ol. The reaction vial was stirred and kept at 40C for 1 hr to accelerate derivatization reaction. Then it was cooled to room temperature and neutralized with 20% triethylamine and centrifuged at 5000 rpm for 5 min. The sample was then injected into the HPLC column.

[2] = POV by titration in formulated ranch salad dressing
Source text: Blank Samples: In all of the experiments below, an Untreated Oil (Blank) sample was maintained. The Blank was always packaged, stored, handled, and sampled in exactly the same manner as the Treated Sample, excepting the addition of the 2-oxoacid salt. In this way, the effect of the atmospheric oxygen in the headspace volume would be similar. For example, the ratio of the headspace volume to the volume of oil, and the area of contact between the headspace and the oil surface, would be the same for Treated and Untreated samples.
Into 30 mL glass vial was placed 15 g of a commercial salad dressing that had been stored in the lab at room temperature for an unknown but extended period after opening. To this vial, 0.4002 g of PhPA-DiMeC 10A was added and mixed well. The mixture was allowed to stand on the bench top under ambient laboratory light at room temperature. Periodically, measurements were recorded of the POV by titration, rancid-smelling aldehydes by HPLC with DNPH derivatization (see method above), and sensory evaluation.

[3] = POV reduction in model citrus perfume (mixed citrus oil in 90/10 v/v ethanol/water); conditions: for % POV Reduction: model citrus perfume, vs untreated sample

With `CCCCCCCCCCN(C)C.O=C(O)C(=O)Cc1ccccc1` [DiMeC10A-PhPA] the 2-nonenal % reduction [1] was 52.4%, the decanal % reduction [1] was 55.8% and the heptanal % reduction [1] was 60%. For the same compound, the hexanal % reduction [1] was 66.7%, the nonanal % reduction [1] was 79% and the octanal % reduction [1] was 72.3%. For the same compound, the “retention time 22.9 % reduction” value [1] was 51.3%, the “retention time 27.7 % reduction” value [1] was 72.7% and the “retention time 29.8 % reduction” value [1] was 70.5%. For the same compound, the “retention time 30.6 % reduction” value [1] was 65.5%, the “retention time 31.05 % reduction” value [1] was 68.1% and the “retention time […] reduction” value [1] was 63.3%. For the same compound, the “% of reduction in POV” value ([2]; 50 mins since addition) was 0%, the “% of reduction in POV” value ([2]; 6 hrs since addition) was 53% and the “% of reduction in POV” value ([2]; 26 hrs since addition) was 62%.

With `CN(C)CCO.CN(C)CCO.O=C(O)CCC(=O)C(=O)O` [AKG DiDeanol] the “POV Treated Perfume” value ([3]; […] (24 hours), 1.0% w/v in model perfume) was 0.0 mmol/L.

With `CCC(CC)(C(=O)[O-])C(=O)C(=O)O.[Na+]` [Diethyloxaloacetate, Sodium Salt] the “% POV Reduction” value ([3]; 165 Minutes after addition of treating compound) was 36.9% and the “% POV Reduction” value ([3]; 24 hours after addition of treating compound) was 92.7%.
